Data: ChEMBL document CHEMBL5108015, “4,6-Disubstituted-1H-Indazole-4-Amine derivatives with immune-chemotherapy effect and in vivo antitumor activity” (Eur J Med Chem, 2022)
Active and inactive are the calls of the source. The calls are words filed in the database; no cut-off is given here.

What was measured:
[1] = target: T1, Indoleamine 2,3-dioxygenase 1 (Homo sapiens, UniProt P14902); test: Inhibition of human IDO1
Target sequence in this assay (P14902 whole entry): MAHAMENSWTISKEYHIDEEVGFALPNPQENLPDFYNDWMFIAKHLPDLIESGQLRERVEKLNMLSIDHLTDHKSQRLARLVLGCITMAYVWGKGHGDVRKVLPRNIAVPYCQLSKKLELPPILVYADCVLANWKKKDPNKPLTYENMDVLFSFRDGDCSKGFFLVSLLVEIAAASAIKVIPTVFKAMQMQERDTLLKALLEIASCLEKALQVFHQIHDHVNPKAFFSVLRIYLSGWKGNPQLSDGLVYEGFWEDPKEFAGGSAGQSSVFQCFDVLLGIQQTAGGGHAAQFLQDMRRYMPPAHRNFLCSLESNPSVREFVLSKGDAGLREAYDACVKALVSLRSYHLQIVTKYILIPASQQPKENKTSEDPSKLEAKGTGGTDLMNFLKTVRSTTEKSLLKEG

[2] = target: T2, Tryptophan 2,3-dioxygenase (Homo sapiens, UniProt P48775); test: Inhibition of human TDO
Target sequence in this assay (P48775 whole entry, the tested form may be a part): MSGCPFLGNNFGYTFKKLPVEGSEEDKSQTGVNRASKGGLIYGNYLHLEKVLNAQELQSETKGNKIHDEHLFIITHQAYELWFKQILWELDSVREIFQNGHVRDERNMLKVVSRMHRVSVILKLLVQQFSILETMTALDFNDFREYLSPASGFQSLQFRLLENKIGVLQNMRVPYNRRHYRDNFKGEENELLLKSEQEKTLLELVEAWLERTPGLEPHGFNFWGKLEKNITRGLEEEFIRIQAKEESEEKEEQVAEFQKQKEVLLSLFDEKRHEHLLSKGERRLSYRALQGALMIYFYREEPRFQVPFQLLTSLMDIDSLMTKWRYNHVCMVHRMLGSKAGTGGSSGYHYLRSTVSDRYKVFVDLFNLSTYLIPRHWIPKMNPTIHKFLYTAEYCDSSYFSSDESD

[3] = target: T1, Indoleamine 2,3-dioxygenase 1; test: (§1) Inhibition of N-terminal hexa-histidine tagged human IDO1 (12 to 403 residues) expressed in Escherichia coli Transetta (DE3) using L-tryptophan as substrate at 10 uM preincubated with enzyme for 10 mins followed by substrate addition and measured after 30 to 60 mins by microplate reader analysis relative to control; details: time 40-70 min
Target sequence in this assay (P14902 whole entry, looked up): as the sequence (P14902 whole entry) above

[4] = target: T2, Tryptophan 2,3-dioxygenase; test: as §1, with “TDO (19” for “IDO1 (12”, “388” for “403”; details: time 40-70 min
Target sequence in this assay (P48775 whole entry, looked up, the tested form may be a part): as the sequence (P48775 whole entry, the tested form may be a part) above

[5] = target: Tyrosine-protein kinase Yes (Homo sapiens) (UniProt P07947); test: Inhibition of human YES at 2 uM by DiscoveryX Kinomescan assay relative to control
HepG2 = test: Cytotoxicity against human HepG2 cells assessed as inhibition of cell growth incubated for 24 hrs by MTT assay; assay type: functional, cell-based; details: HepG2, 24 h
[6] = target: Serine/threonine-protein kinase pim-2 (Homo sapiens) (UniProt Q9P1W9); test: Inhibition of human PIM-2 at 2 uM by DiscoveryX Kinomescan assay relative to control
[7] = target: Tyrosine-protein kinase BTK (Homo sapiens) (UniProt Q06187); test: Inhibition of human BTK at 2 uM by DiscoveryX Kinomescan assay relative to control
[8] = tested on: Receptor-type tyrosine-protein kinase FLT3 (Homo sapiens), P36888 [D835Y]; test: Inhibition of human FLT3 D835Y mutant at 2 uM by DiscoveryX Kinomescan assay relative to control
[9] = target: Tyrosine-protein kinase Lyn (Homo sapiens) (UniProt P07948); test: Inhibition of human LYN at 2 uM by DiscoveryX Kinomescan assay relative to control
Chain of Tyrosine-protein kinase Lyn (Homo sapiens) (P07948 2-512 limits assumed): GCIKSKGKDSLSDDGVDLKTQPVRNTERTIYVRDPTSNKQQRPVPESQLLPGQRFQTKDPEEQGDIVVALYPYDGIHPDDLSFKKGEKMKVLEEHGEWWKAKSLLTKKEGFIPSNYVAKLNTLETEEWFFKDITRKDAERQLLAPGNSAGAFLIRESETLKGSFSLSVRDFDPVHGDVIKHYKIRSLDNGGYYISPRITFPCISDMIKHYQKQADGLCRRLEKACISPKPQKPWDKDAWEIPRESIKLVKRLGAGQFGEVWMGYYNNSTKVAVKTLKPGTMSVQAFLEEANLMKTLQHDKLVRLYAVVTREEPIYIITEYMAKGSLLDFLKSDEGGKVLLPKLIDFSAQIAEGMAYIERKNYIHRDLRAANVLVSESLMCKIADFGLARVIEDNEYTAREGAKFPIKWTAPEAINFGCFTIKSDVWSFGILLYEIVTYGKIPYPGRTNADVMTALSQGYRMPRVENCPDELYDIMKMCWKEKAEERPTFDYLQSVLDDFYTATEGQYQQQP

MOLM-13 = test: Cytotoxicity against human MOLM-13 cells assessed as inhibition of cell growth incubated for 24 hrs by MTT assay; assay type: functional, cell-based; details: MOLM-13, 24 h
[10] = target: T2, Tryptophan 2,3-dioxygenase; test: (§2) Inhibition of N-terminal hexa-histidine tagged human TDO (19 to 388 residues) expressed in Escherichia coli Transetta (DE3) using L-tryptophan as substrate preincubated with enzyme for 10 mins followed by substrate addition and measured after 30 to 60 mins by microplate reader analysis
Target sequence in this assay (P48775 whole entry, the tested form may be a part): as the sequence (P48775 whole entry, the tested form may be a part) above

[11] = target: DNA-dependent protein kinase catalytic subunit (Homo sapiens) (UniProt P78527); test: Inhibition of human DNA-PK at 2 uM by DiscoveryX Kinomescan assay relative to control
H22 = test: Cytotoxicity against mouse H22 cells assessed as inhibition of cell growth incubated for 24 hrs by MTT assay; assay type: functional, cell-based; details: H22, 24 h
[12] = Cytotoxicity against […] cells assessed as inhibition of cell growth incubated for 24 hrs by MTT assay; assay type: functional, cell-based; details: Mus musculus, Hepa1-6, 24 h
Jurkat = test: Cytotoxicity against human Jurkat cells assessed as inhibition of cell growth incubated for 24 hrs by MTT assay; assay type: functional, cell-based
[13] = target: RAF proto-oncogene serine/threonine-protein kinase (Homo sapiens) (UniProt P04049); test: Inhibition of human c-Raf at 2 uM by DiscoveryX Kinomescan assay relative to control
[14] = target: Platelet-derived growth factor receptor alpha (Homo sapiens) (UniProt P16234); test: Inhibition of human PDGFRalpha at 2 uM by DiscoveryX Kinomescan assay relative to control
[15] = target: T1, Indoleamine 2,3-dioxygenase 1; test: as §1, with “at 100” for “at 10”; details: time 40-70 min
Target sequence in this assay (P14902 whole entry, looked up): as the sequence (P14902 whole entry) above

[16] = target: Tyrosine-protein kinase JAK3 (Homo sapiens) (UniProt P52333); test: Inhibition of human JAK3 at 2 uM by DiscoveryX Kinomescan assay relative to control
Chain of Tyrosine-protein kinase JAK3 (Homo sapiens) (P52333 whole entry): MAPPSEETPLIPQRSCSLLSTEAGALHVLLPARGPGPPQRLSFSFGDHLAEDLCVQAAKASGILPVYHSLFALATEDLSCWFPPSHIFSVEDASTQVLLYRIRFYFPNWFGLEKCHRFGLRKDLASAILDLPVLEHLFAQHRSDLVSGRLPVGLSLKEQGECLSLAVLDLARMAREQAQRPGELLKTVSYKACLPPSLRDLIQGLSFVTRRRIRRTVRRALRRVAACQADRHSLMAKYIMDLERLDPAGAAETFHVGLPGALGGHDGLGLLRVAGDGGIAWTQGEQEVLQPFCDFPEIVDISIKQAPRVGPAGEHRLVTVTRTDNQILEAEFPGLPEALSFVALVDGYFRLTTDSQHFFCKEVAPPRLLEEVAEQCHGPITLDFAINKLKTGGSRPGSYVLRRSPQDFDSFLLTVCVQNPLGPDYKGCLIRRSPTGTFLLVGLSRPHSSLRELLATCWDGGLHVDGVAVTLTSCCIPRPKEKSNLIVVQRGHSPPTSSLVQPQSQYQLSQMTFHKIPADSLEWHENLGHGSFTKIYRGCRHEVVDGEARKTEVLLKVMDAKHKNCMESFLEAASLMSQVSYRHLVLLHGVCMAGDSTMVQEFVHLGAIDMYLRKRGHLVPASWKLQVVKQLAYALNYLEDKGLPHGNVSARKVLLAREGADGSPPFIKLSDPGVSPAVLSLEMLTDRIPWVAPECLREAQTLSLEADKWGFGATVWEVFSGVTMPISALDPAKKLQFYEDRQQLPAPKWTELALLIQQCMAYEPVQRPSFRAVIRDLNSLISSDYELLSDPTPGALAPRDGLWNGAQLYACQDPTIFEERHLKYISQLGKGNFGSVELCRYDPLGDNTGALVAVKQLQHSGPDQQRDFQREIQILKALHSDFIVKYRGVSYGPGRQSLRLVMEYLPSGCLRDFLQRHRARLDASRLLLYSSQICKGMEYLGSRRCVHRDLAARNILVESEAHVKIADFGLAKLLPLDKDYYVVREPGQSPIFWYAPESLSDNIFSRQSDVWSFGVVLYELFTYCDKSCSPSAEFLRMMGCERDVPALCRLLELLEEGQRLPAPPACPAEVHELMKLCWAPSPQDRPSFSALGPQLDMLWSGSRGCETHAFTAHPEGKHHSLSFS

[17] = target: Serine/threonine-protein kinase pim-1 (Homo sapiens) (UniProt P11309); test: Inhibition of human PIM-1 at 2 uM by DiscoveryX Kinomescan assay relative to control
Chain of Serine/threonine-protein kinase pim-1 (Homo sapiens) (P11309 whole entry, looked up, the tested form may be a part): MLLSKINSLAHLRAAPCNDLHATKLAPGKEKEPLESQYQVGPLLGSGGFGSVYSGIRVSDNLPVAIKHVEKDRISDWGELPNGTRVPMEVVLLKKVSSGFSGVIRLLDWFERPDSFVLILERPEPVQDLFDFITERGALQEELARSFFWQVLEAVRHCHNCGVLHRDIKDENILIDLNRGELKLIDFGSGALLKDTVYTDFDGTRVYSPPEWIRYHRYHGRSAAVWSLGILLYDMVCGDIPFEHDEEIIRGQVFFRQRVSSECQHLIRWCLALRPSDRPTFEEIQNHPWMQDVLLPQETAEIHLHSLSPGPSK

[18] = target: T1, Indoleamine 2,3-dioxygenase 1; test: Inhibition of N-terminal hexa-histidine tagged human IDO1 (12 to 403 residues) expressed in Escherichia coli Transetta (DE3) using L-tryptophan as substrate preincubated with enzyme for 10 mins followed by substrate addition and measured after 30 to 60 mins by microplate reader analysis
Target sequence in this assay (P14902 whole entry): as the sequence (P14902 whole entry) above

[19] = target: Vascular endothelial growth factor receptor 2 (Homo sapiens) (UniProt P35968); test: Inhibition of human KDR at 2 uM by DiscoveryX Kinomescan assay relative to control
[20] = target: Tyrosine-protein kinase JAK1 (Homo sapiens) (UniProt P23458); test: Inhibition of human JAK1 at 2 uM by DiscoveryX Kinomescan assay relative to control
[21] = target: T2, Tryptophan 2,3-dioxygenase; test: as §2, with “as substrate at 100 uM preincubated with” for “as substrate preincubated with”, “reader analysis relative to control” for “reader analysis”; details: time 40-70 min
Target sequence in this assay (P48775 whole entry, looked up, the tested form may be a part): as the sequence (P48775 whole entry, the tested form may be a part) above

B16 = test: Cytotoxicity against mouse B16 cells assessed as inhibition of cell growth incubated for 24 hrs by MTT assay; assay type: functional, cell-based; details: B16, 24 h
[22] = target: Mast/stem cell growth factor receptor Kit (Homo sapiens) (UniProt P10721); test: Inhibition of human c-KIT at 2 uM by DiscoveryX Kinomescan assay relative to control
[23] = target: Tyrosine-protein kinase JAK2 (Homo sapiens) (UniProt O60674); test: Inhibition of human JAK2 at 2 uM by DiscoveryX Kinomescan assay relative to control
Chain of Tyrosine-protein kinase JAK2 (Homo sapiens) (O60674 whole entry): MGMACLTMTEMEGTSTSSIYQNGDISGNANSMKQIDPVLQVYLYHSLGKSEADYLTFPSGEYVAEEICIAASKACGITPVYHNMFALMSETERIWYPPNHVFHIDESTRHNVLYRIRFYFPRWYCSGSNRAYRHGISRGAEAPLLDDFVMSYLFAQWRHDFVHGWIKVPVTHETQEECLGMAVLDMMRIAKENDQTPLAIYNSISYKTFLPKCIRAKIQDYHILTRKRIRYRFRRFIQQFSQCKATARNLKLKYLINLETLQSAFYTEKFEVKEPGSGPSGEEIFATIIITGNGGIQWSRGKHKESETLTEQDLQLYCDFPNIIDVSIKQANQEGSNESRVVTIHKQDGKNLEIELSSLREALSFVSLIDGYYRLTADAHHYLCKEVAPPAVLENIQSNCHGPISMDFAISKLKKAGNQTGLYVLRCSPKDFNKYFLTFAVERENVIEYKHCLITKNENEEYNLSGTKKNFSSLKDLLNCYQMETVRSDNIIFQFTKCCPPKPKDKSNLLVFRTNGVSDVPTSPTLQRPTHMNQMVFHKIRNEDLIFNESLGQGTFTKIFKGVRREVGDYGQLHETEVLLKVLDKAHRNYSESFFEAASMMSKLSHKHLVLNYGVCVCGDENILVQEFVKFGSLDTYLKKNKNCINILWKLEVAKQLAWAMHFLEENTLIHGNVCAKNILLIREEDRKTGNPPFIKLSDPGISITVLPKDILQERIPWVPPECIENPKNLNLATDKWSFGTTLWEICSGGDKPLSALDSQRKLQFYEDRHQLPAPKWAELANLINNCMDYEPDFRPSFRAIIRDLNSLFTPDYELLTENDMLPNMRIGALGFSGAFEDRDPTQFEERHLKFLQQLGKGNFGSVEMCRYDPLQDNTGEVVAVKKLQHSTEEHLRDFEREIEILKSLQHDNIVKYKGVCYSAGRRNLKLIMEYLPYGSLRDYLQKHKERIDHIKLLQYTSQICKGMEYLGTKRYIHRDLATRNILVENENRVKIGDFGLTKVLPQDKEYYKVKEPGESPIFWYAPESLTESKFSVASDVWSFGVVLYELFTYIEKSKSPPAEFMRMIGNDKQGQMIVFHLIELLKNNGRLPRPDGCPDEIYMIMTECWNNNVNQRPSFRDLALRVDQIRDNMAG

[24] = target: Serine/threonine-protein kinase B-raf (Homo sapiens) (UniProt P15056); test: Inhibition of human B-Raf at 2 uM by DiscoveryX Kinomescan assay relative to control
[25] = target: Tyrosine-protein kinase receptor UFO (Homo sapiens) (UniProt P30530); test: Inhibition of human AXL at 2 uM by DiscoveryX Kinomescan assay relative to control
[26] = target: Receptor-type tyrosine-protein kinase FLT3 (Homo sapiens) (UniProt P36888); test: Inhibition of human FLT3 at 2 uM by DiscoveryX Kinomescan assay relative to control
CT26 [27] = test: Downregulation of TNF-alpha expression in tumor of BALB/c mouse implanted with mouse CT26 cells at 12.5 to 50 mg/kg, IG administered every one day for 9 days by Hematoxylin staining based immunohistochemistry analysis; assay type: functional, organism-based; details: dose 12.5-50 mg/kg, time 9.0 day
CT26 [28] = test: Antitumor activity against mouse CT26 cells implanted in BALB/c mouse assessed as reduction in tumor volume at 12.5 to 50 mg/kg, IG administered every one day for 9 days and measured every 3 days by vernier caliper analysis; assay type: functional, organism-based; details: dose 12.5-50 mg/kg, time 9.0 day
CT26 [29] = test: Upregulation of CD8 expression in tumor of BALB/c mouse implanted with mouse CT26 cells at 12.5 to 50 mg/kg, IG administered every one day for 9 days by Hematoxylin staining based immunohistochemistry analysis; assay type: functional, organism-based; details: dose 12.5-50 mg/kg, time 9.0 day
CT26 [30] = test: Downregulation of Foxp3 expression in tumor of BALB/c mouse implanted with mouse CT26 cells at 12.5 to 50 mg/kg, IG administered every one day for 9 days by Hematoxylin staining based immunohistochemistry analysis; assay type: functional, organism-based; details: dose 12.5-50 mg/kg, time 9.0 day
[31] = target: T2, Tryptophan 2,3-dioxygenase; test: Inhibition of TDO in HEK293-A cells transfected with pCMV-TDO2; assay type: cell-based
Target sequence in this assay (P48775 whole entry, the tested form may be a part): as the sequence (P48775 whole entry, the tested form may be a part) above

HEK293 = test: Cytotoxicity against HEK293 cells assessed as inhibition of cell growth at <10 uM incubated for 24 hrs by MTT assay; assay type: toxicity, cell-based; details: human, hek293, 24 h
[32] = Toxicity in BALB/c mouse implanted with mouse CT26 cells assessed as reduction in body weight at 12.5 to 50 mg/kg, IG administered every one day for 9 days and measured every 3 days; assay type: organism-based; details: in vivo, po, 216 h, dose 12.5-50 mg/kg, time 9 day
CT26 [33] = test: Antitumor activity against mouse CT26 cells implanted in BALB/c mouse assessed as inhibition of tumor volume at 25 mg/kg, IG administered every one day for 9 days and measured every 3 days by vernier caliper analysis relative to control; assay type: functional; details: CT26, po, 216 h, time 9 day
CT26 [34] = test: Antitumor activity against mouse CT26 cells implanted in BALB/c mouse assessed as reduction in tumor weight at 12.5 to 50 mg/kg, IG administered every one day for 9 days and measured every 3 days by vernier caliper analysis; assay type: functional, organism-based; details: dose 12.5-50 mg/kg, time 9.0 day
CT26 [35] = test: Antitumor activity against mouse CT26 cells implanted in BALB/c mouse assessed as inhibition of tumor volume at 30 mg/kg, IG administered every one day for 9 days and measured every 3 days by vernier caliper analysis relative to control; assay type: functional; details: CT26, po, 216 h, time 9 day
[36] = Toxicity in BALB/c mouse implanted with mouse CT26 cells assessed as reduction in body weight at 50 mg/kg, IG administered every one day for 9 days and measured every 3 days; assay type: organism-based; details: in vivo, po, 216 h, time 9 day
CT26 [37] = test: Antitumor activity against mouse CT26 cells implanted in BALB/c mouse assessed as reduction in tumor volume at 50 mg/kg, IG administered every one day for 9 days and measured every 3 days by vernier caliper analysis relative to control; assay type: functional, organism-based; details: time 9.0 day
CT26 [38] = test: Antitumor activity against mouse CT26 cells implanted in BALB/c mouse assessed as inhibition of tumor volume at 50 mg/kg, IG administered every one day for 9 days and measured every 3 days by vernier caliper analysis relative to control; assay type: functional; details: CT26, po, 216 h, time 9 day
CT26 [39] = test: Antitumor activity against mouse CT26 cells implanted in BALB/c mouse assessed as reduction in tumor weight at 50 mg/kg, IG administered every one day for 9 days and measured every 3 days by vernier caliper analysis; assay type: functional, organism-based; details: time 9.0 day

Row | inhibition [3] [%] | inhibition [4] [%] | IC50 [10] [µM] | inhibition [15] [%] | IC50 [18] [µM] | inhibition [21] [%] | SMILES | IC50 (HepG2) [µM] | IC50 (MOLM-13) [µM] | IC50 (H22) [µM] | IC50 [12] [µM] | IC50 (Jurkat) [µM] | IC50 (B16) [µM] | other results
1 |  |  |  |  |  |  | O[C@@H]1c2ccnn2CC[C@H]1[C@H]1c2ccccc2-c2cncn21 |  |  |  |  |  |  | IC50 [1]: 4.5 µM; IC50 [2]: 0.13 µM
2 | 35 | 89 | 2.55 | 76 | 13.9 | 95 | O=[N+]([O-])c1ccccc1CNc1cc(C(F)(F)F)cc2[nH]ncc12 | 7.76 | 2.35 | 9.01 | 7.58 | > 20 | > 20 | inhibition [5]: 33%; inhibition [6]: 4%; inhibition [7]: 12%; inhibition [8]: 96%; inhibition [9]: 50%; inhibition [11]: 0%; inhibition [13]: 31%; inhibition [14]: 23%; inhibition [16]: 78%; inhibition [17]: 78%; inhibition [19]: 100%; inhibition [20]: 66%; inhibition [22]: 61%; inhibition [23]: 35%; inhibition [24]: 27%; inhibition [25]: 33%; inhibition [26]: 93%
3 |  |  |  |  |  |  | NC(=O)Nc1ccc(-c2c[nH]c3cc(F)ccc23)cc1 |  |  |  |  |  |  | IC50 [1]: 0.049 µM; IC50 [2]: 0.078 µM
4 | 36 | 90 | 0.62 | 62 | > 100 | 92 | Cc1ccc(CNc2cc(C(F)(F)F)cc3[nH]ncc23)c([N+](=O)O)c1 | 0.54 | 3.43 | 1.34 | 5.08 | 7.25 | 37.4 | Activity (CT26 [27]): Active; Activity (CT26 [28]): Active; Activity (CT26 [29]): Active; Activity (CT26 [30]): Active; IC50 [31]: 0.06 µM; Activity (HEK293): Non-Toxic; Activity [32]: Non-Toxic; inhibition in vivo at 25 mg/kg (CT26 [33]): 76.9%; Activity (CT26 [34]): Active
5 |  |  |  |  |  |  | CC(C(=O)c1ccc(O)cc1)C1(O)C(=O)Nc2c(Cl)cc(Cl)cc21 (centres undefined) |  |  |  |  |  |  | Ki [1]: > 1 µM; Ki [2]: > 1 µM
6 | 63 | 96 | 0.79 | 93 | 58 | 98 | CS(=O)(=O)c1ccc(CNc2cc(C(F)(F)F)cc3[nH]ncc23)c([N+](=O)O)c1 | > 20 | > 20 | > 20 | > 20 | > 20 | > 20 | 
7 | 35 | 84 | 3.19 | 65 | 37.7 | 88 | O=[N+]([O-])c1ccc(Cl)cc1CNc1cc(C(F)(F)F)cc2[nH]ncc12 | 1.3 | 1.05 | 0.49 | 0.94 | 1.1 | 11.6 | Activity (HEK293): Non-Toxic
8 | 32 | 64 | 8.05 | 81 | 18.7 | 88 | FC(F)(F)c1cc(NC[C@@H]2CCCCN2)c2cn[nH]c2c1 | 19.9 | > 20 | 21.7 | > 20 | > 20 | > 20 | 
9 | 45 | 96 | 0.17 | 69 | 60 | 94 | O=[N+](O)c1c(Cl)cccc1CNc1cc(C(F)(F)F)cc2[nH]ncc12 | > 20 | 7.69 | > 20 | > 20 | > 20 | > 20 | 
10 | 34 | 55 | 6.09 | 83 | 9.58 | 84 | FC(F)(F)c1cc(NC[C@H]2CCCN2)c2cn[nH]c2c1 | 16.2 | > 20 | 19.7 | > 20 | > 20 | > 20 | 
11 |  |  |  |  |  |  | NS(=O)(=O)NCCNc1nonc1/C(=N/O)Nc1ccc(F)c(Br)c1 [EPACADOSTAT] |  |  |  |  |  |  | inhibition in vivo at 30 mg/kg (CT26 [35]): 57.5%
12 | 92 | 96 | 0.46 | 98 | 0.91 | 99 | O=[N+]([O-])c1ccc(O)cc1CNc1cc(Br)cc2[nH]ncc12 | > 20 | > 20 | > 20 | > 20 | > 20 | > 20 | Activity [36]: Non-Toxic; Activity (CT26 [37]): Active; inhibition in vivo at 50 mg/kg (CT26 [38]): 60.5%; Activity (CT26 [39]): Active
